Experimental data: PubChem BioAssay (NCI)
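Assay format: 96-well plates, 48-hour exposure. At the TGI there is no net growth.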

Tests used:
Assay in all cases: DTP human tumour cell line panel, 48 h
A549 NSCLC = system: A549 NSCLC
SK-MEL-5 melanoma = system: SK-MEL-5 melanoma
SK-MEL-2 melanoma = system: SK-MEL-2 melanoma
DU-145 prostate = system: DU-145 prostate
HOP-62 NSCLC = system: HOP-62 NSCLC
COLO 205 colon = system: COLO 205 colon
LOX IMVI melanoma = system: LOX IMVI melanoma
EKVX NSCLC = system: EKVX NSCLC
U251 CNS = system: U251 CNS
HOP-92 NSCLC = system: HOP-92 NSCLC
SF-268 CNS = system: SF-268 CNS
NCI-H522 lung = system: NCI-H522 lung
HCC-2998 colon = system: HCC-2998 colon
MALME-3M melanoma = system: MALME-3M melanoma
UO-31 renal = system: UO-31 renal
OVCAR-3 ovarian = system: OVCAR-3 ovarian
SW-620 colon = system: SW-620 colon
IGROV1 ovarian = system: IGROV1 ovarian
UACC-62 melanoma = system: UACC-62 melanoma
A498 renal = system: A498 renal

CC(C)OC(=O)NCCn1cc(-c2ccccc2)nn1
TGI (A549 NSCLC): > 100 µM
TGI (SK-MEL-5 melanoma): > 100 µM
TGI (SK-MEL-2 melanoma): > 100 µM
TGI (DU-145 prostate): > 100 µM
TGI (HOP-62 NSCLC): > 100 µM
TGI (COLO 205 colon): > 100 µM
TGI (LOX IMVI melanoma): > 100 µM
TGI (EKVX NSCLC): > 100 µM
TGI (U251 CNS): > 100 µM
TGI (HOP-92 NSCLC): > 100 µM
TGI (SF-268 CNS): > 100 µM
TGI (NCI-H522 lung): > 100 µM
TGI (HCC-2998 colon): > 100 µM
TGI (MALME-3M melanoma): > 100 µM

O=C(c1ccc2ccccc2c1)C1(I)S(=O)(=O)OCCOS1(=O)=O
TGI (A549 NSCLC): > 100 µM
TGI (SK-MEL-5 melanoma): > 100 µM
TGI (SK-MEL-2 melanoma): > 100 µM
TGI (DU-145 prostate): > 100 µM
TGI (HOP-62 NSCLC): > 100 µM
TGI (UO-31 renal): > 100 µM
TGI (COLO 205 colon): > 100 µM
TGI (EKVX NSCLC): > 100 µM
TGI (U251 CNS): > 100 µM
TGI (HCC-2998 colon): > 100 µM
TGI (OVCAR-3 ovarian): > 100 µM
TGI (MALME-3M melanoma): > 100 µM

O=C(CNc1ccccc1[N+](=O)[O-])Nn1cnc2ccc(S(=O)(=O)Nc3ccccc3[N+](=O)[O-])cc2c1=O
TGI (A549 NSCLC): > 100 µM
TGI (SK-MEL-2 melanoma): > 100 µM
TGI (DU-145 prostate): > 100 µM
TGI (HOP-62 NSCLC): > 100 µM
TGI (UO-31 renal): > 100 µM
TGI (SW-620 colon): > 100 µM
TGI (COLO 205 colon): > 100 µM
TGI (LOX IMVI melanoma): > 100 µM
TGI (EKVX NSCLC): > 100 µM
TGI (U251 CNS): > 100 µM
TGI (IGROV1 ovarian): > 100 µM
TGI (HOP-92 NSCLC): > 100 µM
TGI (SF-268 CNS): > 100 µM
TGI (NCI-H522 lung): > 100 µM
TGI (HCC-2998 colon): > 100 µM
TGI (OVCAR-3 ovarian): > 100 µM
TGI (UACC-62 melanoma): > 100 µM
TGI (MALME-3M melanoma): > 100 µM

Brc1ccc(C2=NCSC(c3ccc(Br)cc3)=N2)cc1
TGI (A549 NSCLC): > 100 µM
TGI (SK-MEL-5 melanoma): 64.5 µM
TGI (SK-MEL-2 melanoma): 32.5 µM
TGI (HOP-62 NSCLC): > 100 µM
TGI (UO-31 renal): 67.2 µM
TGI (SW-620 colon): > 100 µM
TGI (COLO 205 colon): > 100 µM
TGI (LOX IMVI melanoma): 70.9 µM
TGI (EKVX NSCLC): 38.5 µM
TGI (U251 CNS): 53.3 µM
TGI (IGROV1 ovarian): > 100 µM
TGI (HOP-92 NSCLC): > 100 µM
TGI (SF-268 CNS): > 100 µM
TGI (NCI-H522 lung): 58.4 µM
TGI (HCC-2998 colon): 51 µM
TGI (UACC-62 melanoma): 29.8 µM
TGI (MALME-3M melanoma): > 100 µM

O=C(CCC(=O)c1ccsc1)c1ccsc1
TGI (A549 NSCLC): > 100 µM
TGI (SK-MEL-5 melanoma): > 100 µM
TGI (SK-MEL-2 melanoma): > 100 µM
TGI (DU-145 prostate): > 100 µM
TGI (HOP-62 NSCLC): > 100 µM
TGI (UO-31 renal): > 100 µM
TGI (SW-620 colon): > 100 µM
TGI (COLO 205 colon): > 100 µM
TGI (LOX IMVI melanoma): > 100 µM
TGI (U251 CNS): > 100 µM
TGI (IGROV1 ovarian): > 100 µM
TGI (HOP-92 NSCLC): > 100 µM
TGI (SF-268 CNS): > 100 µM
TGI (NCI-H522 lung): > 100 µM
TGI (A498 renal): > 100 µM
TGI (HCC-2998 colon): > 100 µM
TGI (OVCAR-3 ovarian): > 100 µM
TGI (UACC-62 melanoma): > 100 µM
TGI (MALME-3M melanoma): > 100 µM

Clc1ccc(Cc2nc3ccccc3o2)cc1
TGI (A549 NSCLC): > 100 µM
TGI (SK-MEL-5 melanoma): > 100 µM
TGI (SK-MEL-2 melanoma): > 100 µM
TGI (DU-145 prostate): > 100 µM
TGI (HOP-62 NSCLC): > 100 µM
TGI (UO-31 renal): > 100 µM
TGI (SW-620 colon): > 100 µM
TGI (COLO 205 colon): > 100 µM
TGI (LOX IMVI melanoma): > 100 µM
TGI (EKVX NSCLC): > 100 µM
TGI (U251 CNS): > 100 µM
TGI (IGROV1 ovarian): > 100 µM
TGI (HOP-92 NSCLC): > 100 µM
TGI (SF-268 CNS): > 100 µM
TGI (NCI-H522 lung): > 100 µM
TGI (HCC-2998 colon): > 100 µM
TGI (OVCAR-3 ovarian): > 100 µM
TGI (UACC-62 melanoma): > 100 µM
TGI (MALME-3M melanoma): > 100 µM

CC(C)[Si](OC12CCC(CC1O)CC2CO)(C(C)C)C(C)C (stereo not drawn)
TGI (A549 NSCLC): 22.1 µM
TGI (SK-MEL-5 melanoma): 47.6 µM
TGI (SK-MEL-2 melanoma): 29.3 µM
TGI (DU-145 prostate): 35.5 µM
TGI (HOP-62 NSCLC): 29.9 µM
TGI (UO-31 renal): 26.8 µM
TGI (SW-620 colon): 52.4 µM
TGI (COLO 205 colon): 42.2 µM
TGI (U251 CNS): 28 µM
TGI (HOP-92 NSCLC): 29 µM
TGI (SF-268 CNS): 27.9 µM
TGI (A498 renal): 32 µM
TGI (OVCAR-3 ovarian): 27.6 µM
TGI (UACC-62 melanoma): 28.9 µM
